Results: ChEMBL document CHEMBL2150938, “Pyrrolo[2,3-b]quinoxalines as inhibitors of firefly luciferase: their Cu-mediated synthesis and evaluation as false positives in a reporter gene assay” (Bioorg Med Chem Lett, 2012)

Columns and labels:
[1] = target: 3',5'-cyclic-AMP phosphodiesterase 4B (Homo sapiens) (UniProt Q07343); test: Inhibition of PDE4B at 30 uM by luciferase reporter gene assay
Lampyridae = test: inhibition of firefly luciferase at 30 uM after 15 mins by luminescence assay

Sequence of 3',5'-cyclic-AMP phosphodiesterase 4B (Homo sapiens) (Q07343 whole entry): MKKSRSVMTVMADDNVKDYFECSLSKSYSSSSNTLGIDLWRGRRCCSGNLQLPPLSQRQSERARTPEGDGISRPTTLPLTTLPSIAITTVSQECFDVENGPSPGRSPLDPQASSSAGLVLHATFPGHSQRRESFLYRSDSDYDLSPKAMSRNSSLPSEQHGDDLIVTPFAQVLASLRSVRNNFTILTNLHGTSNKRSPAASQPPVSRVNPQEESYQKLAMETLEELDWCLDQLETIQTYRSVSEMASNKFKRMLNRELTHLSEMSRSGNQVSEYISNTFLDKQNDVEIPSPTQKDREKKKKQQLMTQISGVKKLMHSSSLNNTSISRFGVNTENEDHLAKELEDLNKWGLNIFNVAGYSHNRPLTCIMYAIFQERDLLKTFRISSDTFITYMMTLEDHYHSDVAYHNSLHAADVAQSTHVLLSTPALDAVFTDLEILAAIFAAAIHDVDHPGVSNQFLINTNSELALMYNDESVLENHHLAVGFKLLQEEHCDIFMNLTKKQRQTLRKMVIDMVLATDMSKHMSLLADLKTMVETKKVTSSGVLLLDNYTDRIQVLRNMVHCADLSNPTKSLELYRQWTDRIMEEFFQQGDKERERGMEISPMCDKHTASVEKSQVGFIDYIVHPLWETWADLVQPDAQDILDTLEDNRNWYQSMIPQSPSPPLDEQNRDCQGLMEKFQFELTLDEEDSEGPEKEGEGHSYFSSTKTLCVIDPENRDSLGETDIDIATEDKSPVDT

inhibition [1]	inhibition (Lampyridae)	SMILES
94.7%	92.4%	CS(=O)(=O)n1c(-c2ccccc2)cc2nc3ccccc3nc21
98.3%	98.4%	c1ccc(-c2cc3[nH]c4ccccc4nc-3n2)cc1
100%	99.2%	CC(C)(C)c1cc2nc3ccccc3nc2[nH]1
